# System: Mycobacterium tuberculosis H37Rv growth inhibition, no glycerol
# Test: Confirmatory growth inhibition assay, Mycobacterium tuberculosis H37Rv, absence of glycerol (AID 449764);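 note: growth read after 7 days of incubation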
# Conditions: for IC90: measured here: IC90 growth inhibition
SMILES,IC50 [µM],IC90 [µM]
COc1cccc2sc(Nc3nnc(-c4cccs4)o3)nc12,33.9,42.7
CCc1cc2c(=O)n(C(C)C(=O)OC3CCCCC3)cnc2s1 (configuration not stated),24.1,52
Cc1[nH]n(-c2ccccc2)c(=O)c1C(C[N+](=O)[O-])c1ccccc1Cl (configuration not stated),23.4,27.1
Cc1nn(-c2ccccc2)c(N)c1N=Nc1ccc(Cl)cc1,52.1,> 100
CCCCCCCNC(=O)c1ccc(N2CCC3(CC2)OCCO3)c([N+](=O)[O-])c1,48.3,67.2
CCc1ccc2oc(-c3ccc(OC)cc3)cc(=Nc3c(C)n(C)n(-c4ccccc4)c3=O)c2c1,18.8,23.4
COc1ccc(Cl)cc1C(=O)O/N=C(\N)c1ccccn1,76.4,> 100
COc1ccc(-c2nnc(NC(=O)c3ccc([N+](=O)[O-])o3)o2)c(OC)c1,6.13,14
CC(C)OC(=O)c1ccc(NC(=S)NC(=O)c2cncc(Br)c2)cc1,–,> 100
CC(/C=C/c1ccccc1)=N\NC(N)=S,4.99,12.3
Cc1cc([N+](=O)[O-])c2ccccc2[n+]1[O-],8.67,13.8
CC(Sc1nnc(NC2CCCCC2)s1)C(=O)Nc1ccc2c(c1)C(=O)c1ccccc1C2=O (configuration not stated),11.2,14.4
CC(/C=N/n1c(C2CCCCC2)n[nH]c1=S)=C\c1ccccc1,80.8,90.3
Cc1cncn1CCc1nc2c3ccccc3nc(SCC(=O)Nc3cccc(Cl)c3)n2n1,27.4,31.9
O=C(c1ccc(CNc2c(N3CCCC3)c(=O)c2=O)cc1)N1CC=C(c2ccccc2)CC1,1.43,1.62
NNc1nc2ccc(Cl)cc2s1,62.4,70.6
S=C(Nc1ccc(Cl)cc1)NC1CC2CCC(C1)N2Cc1ccccc1 (configuration not stated),63.1,95.6
C/C(=C1/C(=O)N(c2ccc([N+](=O)[O-])cc2)N=C1c1ccccc1)N(C)C,28.2,37
COc1ccc(-c2ccc(C#N)c(SCC(=O)OCc3ccccc3)n2)cc1OC,23.9,26.8
CN(C)c1ccc(/C=C2\N=C(C(C)(C)C)OC2=O)cc1,86,> 100
COc1cccc(C2C3=C(N=c4s/c(=C\c5cccc(O)c5)c(=O)n42)c2ccccc2CC3)c1OC (configuration not stated),22.7,25.6
Cc1cc(/C=C2\SC(=Nc3ccc(F)cc3)NC2=O)c(C)n1-c1ccc(S(N)(=O)=O)cc1,22.7,26.2

SMILES,IC50 [µM],IC90 [µM]
COC(=O)C(C)Oc1ccc2c(c1)O/C(=C\c1ccco1)C2=O (configuration not stated),11.3,17.2
COc1ccc2nc(NC(=O)C3CCCN(S(=O)(=O)c4cccs4)C3)sc2c1 (configuration not stated),14.9,24.2
Oc1ccc(F)c2cccnc12,5.94,6.56
O=C(CSc1ccc(Cl)cc1)N1CCC(c2nc3ccccc3s2)CC1,53.8,68.3
O=[N+]([O-])c1cc(-c2ccc(/C=N\n3cnnc3)o2)cc([N+](=O)[O-])c1,45.5,49.9
O=C(Oc1ccccc1-c1nnco1)c1ccc(Cl)cc1,27.8,73.6
CC(C)(C)C1CCc2nc(NC(=O)Cc3cn4ccsc4n3)sc2C1 (configuration not stated),24.3,35.4
CC(C)CNc1nnnc2c1sc1nc(N3CCOCC3)c3c(c12)CC(C)(C)SC3,–,> 100
CC(=O)n1cc(N(C(=O)CCl)c2ccc(Cl)cc2)c2ccccc21,3.7,6.76
COc1cccc2c1C(CO)N1C(C#N)C3CC(C(=O)O)C(C1C2)N3C (configuration not stated),2.71,3
COc1ccc(NC(=O)/C(Cl)=C(/Cl)S(=O)Cc2ccc(C)cc2)cn1 (configuration not stated),< 0.2,0.36
Nc1c(C(=O)O)cnc2c(-c3ccc(Cl)cc3)cnn12,64,99.8
COc1c[nH]n(C2CCCCC2)c(=O)c1=O,24.1,27.6
CN(/N=C/c1cc(Br)cc(Br)c1O)c1cccc(C(F)(F)F)n1,7.9,11.2
COc1cccc(C(=O)NC2CC3CCCC(C2)N3CC(=O)Nc2ccc(N(C)C)cc2)c1 (configuration not stated),21.8,24.4
CCCCn1nc(C(=O)Nc2ccccc2N2CCCC2)c2ccccc2c1=O,81,> 100
Oc1ccccc1/C=N/Nc1ccnc(SCc2ccccc2)n1,2.69,2.95
CC(=O)OCC1O[C@@H](O[C@@H]2C[C@H]3C(C)(C)[C@H](OC(C)=O)CC[C@]3(C)[C@H]3CC[C@]45C[C@]4(CC[C@H]5[C@@H](C)C[C@@H](O)[C@H](O)C(C)(C)O)[C@@]32C)[C@H](O)[C@@H](O)[C@@H]1O (some centres not stated),25.9,35.7
CCOC(=O)Cn1c(C)c(Br)c(=O)c2cccc(C)c21,23,26.6
c1ccc(Cn2c(CNc3nc4ccccc4n3CCN3CCCCC3)nc3ccccc32)cc1,44.6,72.8
CCOC(=O)CSc1ncnc2c1sc1nc(N3CCOCC3)c3c(c12)CCCC3,24.9,27.9
COc1ccc(C(C[N+](=O)[O-])c2c(-c3ccccc3)cc3ccccn23)c(OC)c1 (configuration not stated),45.7,51.8

SMILES,IC50 [µM],IC90 [µM]
CCCNc1nc(-c2cc(C(=O)Nc3ccccc3)on2)cc(C(C)C)n1,42.5,68.9
c1ccc2c(c1)CCN(c1nc(CN3CCOCC3)nc3sc4c(c13)CCCC4)C2,45.2,52.7
c1ccc(CN2CCC3(CCCc4ccccc43)CC2)cc1,12.2,15.8
CCCCCCCCNC(=O)CCNC(=O)c1ccc(C(C)(C)C)cc1,34.3,41.9
c1ccc(-c2c3ccccc3nc3[nH]c4ccccc4c23)cc1,96.3,> 100
Cc1cccc(OCc2n(CC(=O)OC3CC(C)CCC3C(C)C)c3ccccc3[n+]2C)c1 (configuration not stated),8.63,10.4
CCOc1cc(-c2c(C#N)c(=O)[nH]c3c2c(C)nn3-c2ccc(F)cc2)ccc1O,4.87,8.73
O=C(Nc1nc2nc(-c3ccccc3)cc(=O)n2[nH]1)c1ccccc1,22.8,> 100
O=[N+]([O-])c1ccc(S(=O)(=O)c2ccccc2)nc1,1.76,2.98
CC(=O)c1cccc(NC(=S)NC2CCCCCCC2)c1,27.3,> 100
N#CC(C#N)=C(N)CSc1cccc[n+]1[O-],43.6,49
C(C#CCCCCCCCCC[n+]1ccccc1)#CCCCCCCCCC[n+]1ccccc1,4.02,6.85
CCOC(=O)c1cnc(SC2CCc3ccccc3C2=O)nc1N (configuration not stated),87.1,96.5
COCc1nnc(NC(=O)C2CC(=O)N(c3ccc(C)c(Cl)c3)C2)s1 (configuration not stated),76.5,> 100
CCc1ccc(/C=C2/C(=O)N(C)C(=S)N2CC(=O)OC)s1,4.81,6.97
Cc1ccc(C)c(C2C(=O)c3ccccc3C2=O)c1,16.5,46.8
Cc1ccc(C)c(-c2nnc(NC(=O)C3=COCCO3)o2)c1,13.9,30.2
Cc1ccc(C2=NNC3(CCOC(C)(C)C3)S2)cc1 (configuration not stated),27.1,41.3
C/C(CCc1ccc2c(c1)OCO2)=N\NC(=S)NC(C)C,98.4,> 100
O=C(O)c1[nH]c(=O)[nH]c(=O)c1F,5.47,14.1
Cc1ccc(-c2csc(N3CCN(CCCn4c(-c5ccncc5)nc5ccccc54)CC3)n2)cc1,29.7,48.3
CCCCN(C)CCNC(=O)c1ccc(Cn2c(=S)[nH]c3ccc(Br)cc3c2=O)cc1,18.9,27.9

SMILES,IC50 [µM],IC90 [µM]
O=C(/C=C/c1ccco1)Oc1ccc(C(=S)N2CCOCC2)cc1,60.3,> 100
COc1cc2ccccc2cc1C(=O)Nc1ccc(Cc2ccncc2)cc1,18.9,27.3
CSc1nsc(SCC(=O)Nc2ccc(F)cc2F)n1,88.7,98.9
O=C(CSc1nnc(-c2cccs2)o1)NCC1CN(Cc2ccccc2)CCO1 (configuration not stated),20.7,25.5
CCCC12CN3CC(CCC)(CN(C1)C3c1ccccn1)C2=O (configuration not stated),9.71,> 100
CCOC(=O)[C@@H]1[C@H]2COc3cc(OC)ccc3[C@H]2N2C(=O)N(c3ccc(C(F)(F)F)cc3)C(=O)[C@]12C,5.78,6.27
CCCCCCN=C1CC(C)(C)CC(=O)/C1=C(/O)CCC,71,> 100
CC(=O)N1CCN(c2ccc(OC[C@H]3CO[C@](Cn4ccnc4)(c4ccc(Cl)cc4Cl)O3)cc2)CC1,14.6,20.8
O=C(/C=C/c1ncc(C(F)(F)F)cc1Cl)OCc1ccccc1,90.5,> 100
CN(C)CCOc1ccc(-c2c(-c3ccsc3)sc3ccccc23)cc1,15.4,21
c1ccc(Cn2c3ccccc3c3nnc(SCCN4CCCCC4)nc32)cc1,27.5,42.1
O=C1CC(/C=C/c2ccc(Cl)cc2)=Nc2ccccc2N1,12.2,14.2
COc1ccc(CN2CCCC(C(=O)c3ccc(SC)cc3)C2)cc1Cn1cccn1 (configuration not stated),25.2,28.2
C/C(=N\N=C(/N)SC1CC(=O)N(c2ccc(Cl)cc2)C1=O)c1cccs1 (configuration not stated),32.8,> 100
CCCNC1=C(N(C(C)=O)c2cccc(F)c2)C(=O)c2ccccc2C1=O,12.2,15.6
CCOc1ccc(NCc2cccn2-c2nnc(N3CCC(C(=O)NCCCN4C(C)CCCC4C)CC3)s2)cc1 (configuration not stated),93.6,> 100
O=[N+]([O-])c1ncccc1Oc1nc(-c2cccnc2)nc2ccccc12,0.82,3.87
CCOc1cccc2cc(C(=O)Nc3nccs3)c(=O)oc12,2.4,15.3
CN1CCN(Cc2nc3ccccc3c(=O)n2Cc2nc(-c3ccc4ccccc4c3)cs2)CC1,20.7,28.5
COc1ccc(N/N=C(/N=Nc2nc(C)cc(=O)[nH]2)c2ccccc2)cc1,5.64,6.4
O=C(/C=C/c1ccccc1)N1CCN(CCN2C(=O)c3cccc4cccc(c34)C2=O)CC1,2.44,3.96

# From PubChem BioAssay AID449764 (Southern Research Specialized Biocontainment Screening …, 2010)
